These results are taken from ChEMBL document CHEMBL1221277, “Design, synthesis and anticholinesterase activity of a novel series of 1-benzyl-4-((6-alkoxy-3-oxobenzofuran-2(3H)-ylidene) methyl) pyridinium derivatives” (Bioorg Med Chem, 2010).

SMILES strings stand for the structures.

The target in the test is Acetylcholinesterase (Electrophorus electricus, UniProt O42275). The experiment in a line: Inhibition of electric eel AChE by Ellman's method. Background: In Ellman's method for cholinesterases, released thiocholine reacts with DTNB.
Sequence of Acetylcholinesterase (O42275 whole entry): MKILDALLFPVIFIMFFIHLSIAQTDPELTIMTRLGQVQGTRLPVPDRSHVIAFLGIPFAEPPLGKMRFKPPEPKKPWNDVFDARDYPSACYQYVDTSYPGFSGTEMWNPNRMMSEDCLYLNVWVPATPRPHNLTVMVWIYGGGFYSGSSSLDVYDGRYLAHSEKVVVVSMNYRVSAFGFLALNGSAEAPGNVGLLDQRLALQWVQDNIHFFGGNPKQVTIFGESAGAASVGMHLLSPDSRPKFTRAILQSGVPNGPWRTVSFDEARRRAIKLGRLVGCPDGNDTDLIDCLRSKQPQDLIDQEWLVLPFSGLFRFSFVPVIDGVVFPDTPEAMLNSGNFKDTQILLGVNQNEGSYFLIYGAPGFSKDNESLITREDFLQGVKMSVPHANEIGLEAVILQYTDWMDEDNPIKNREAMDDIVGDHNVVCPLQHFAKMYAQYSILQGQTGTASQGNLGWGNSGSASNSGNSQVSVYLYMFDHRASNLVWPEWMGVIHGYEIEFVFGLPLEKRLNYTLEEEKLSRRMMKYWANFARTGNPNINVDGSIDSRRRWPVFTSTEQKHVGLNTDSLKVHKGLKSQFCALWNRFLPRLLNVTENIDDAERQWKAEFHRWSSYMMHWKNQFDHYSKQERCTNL
A word on the IC50: it is the concentration needed to halve the response being measured. Lower therefore signals greater potency in that assay. As to `CCCOc1ccc2c(c1)O/C(=C\c1cc[n+](Cc3ccc(C)cc3)cc1)C2=O`, the IC50 came out at 612 nM.

On to `CCOc1ccc2c(c1)O/C(=C\c1cc[n+](Cc3ccc(C)cc3)cc1)C2=O`, for which the concentration for half-maximal inhibition (IC50) was 790 nM.

Compound `CCCOc1ccc2c(c1)O/C(=C\c1cc[n+](Cc3ccccc3)cc1)C2=O` showed an IC50 of 80 nM.

As for `CCCOc1ccc2c(c1)O/C(=C\c1cc[n+](Cc3ccccc3F)cc1)C2=O`, it took 50 nM to reach half-maximal inhibition (IC50).

In turn, `CCCOc1ccc2c(c1)O/C(=C\c1cc[n+](Cc3cccc(F)c3)cc1)C2=O` had an IC50 of 107 nM.

For `CCCOc1ccc2c(c1)O/C(=C\c1cc[n+](Cc3ccc(F)cc3)cc1)C2=O`, the concentration for half-maximal inhibition (IC50) was 68 nM.

`CCCOc1ccc2c(c1)O/C(=C\c1cc[n+](Cc3ccccc3C)cc1)C2=O` displayed an IC50 of 328 nM.

Take `CCCOc1ccc2c(c1)O/C(=C\c1cc[n+](Cc3cccc(C)c3)cc1)C2=O`: inhibition was half-maximal at 234 nM (IC50).

In turn, `COc1ccc2c(c1)O/C(=C\c1cc[n+](Cc3ccc(C)cc3)cc1)C2=O` gave an IC50 of 475 nM.

In turn, `CCOc1ccc2c(c1)O/C(=C\c1cc[n+](Cc3ccccc3)cc1)C2=O` returned a 50% inhibitory concentration (IC50) of 63 nM.

With `CCOc1ccc2c(c1)O/C(=C\c1cc[n+](Cc3ccccc3F)cc1)C2=O`, the IC50 stood at 32 nM.

In turn, `CCOc1ccc2c(c1)O/C(=C\c1cc[n+](Cc3cccc(F)c3)cc1)C2=O` displayed an IC50 of 48 nM.

For the compound `CCOc1ccc2c(c1)O/C(=C\c1cc[n+](Cc3ccc(F)cc3)cc1)C2=O`, inhibition was half-maximal at 51 nM (IC50).

For the compound `CCOc1ccc2c(c1)O/C(=C\c1cc[n+](Cc3ccccc3C)cc1)C2=O`, the midpoint of inhibition, the IC50, lay at 546 nM.

With `CCOc1ccc2c(c1)O/C(=C\c1cc[n+](Cc3cccc(C)c3)cc1)C2=O`, the IC50 came out at 399 nM.

As to `COc1ccc2c(c1)O/C(=C\c1cc[n+](Cc3ccccc3)cc1)C2=O`, it took 41 nM to reach half-maximal inhibition (IC50).

In the case of `COc1ccc2c(c1)O/C(=C\c1cc[n+](Cc3ccccc3F)cc1)C2=O`, half-maximal inhibition (IC50) required 10 nM.

`COc1ccc2c(c1)O/C(=C\c1cc[n+](Cc3cccc(F)c3)cc1)C2=O`: 60 nM corresponded to half-maximal inhibition (IC50).

`COc1ccc2c(c1)O/C(=C\c1cc[n+](Cc3ccc(F)cc3)cc1)C2=O` yielded an IC50 of 22 nM.

`COc1ccc2c(c1)O/C(=C\c1cc[n+](Cc3ccccc3C)cc1)C2=O` returned an IC50 of 68 nM.

Consider `COc1ccc2c(c1)O/C(=C\c1cc[n+](Cc3cccc(C)c3)cc1)C2=O`, for which half-maximal inhibition (IC50) required 123 nM.
